Entries after “also recorded” stand apart in the source; their conditions may differ.

The results in this text go back to PMC4669722, “Antitumour potential of BPT: a dual inhibitor of cdk4 and tubulin polymerization” (Cell Death & Disease, 2015).

The test system of experiment [1] is panel of 58 representative kinases. The experiment in a line: Kinase profiling, panel of 58 representative kinases. The format is biochemical. The settings on record: at 10 μM. The procedure:
(§1) The in vitro kinase assays for testing against Cdk4-cyclin D1, Cdk2-cyclin A, Cdk1-cyclin B1 and Cdk9-cyclin T1 were performed in-house. The methodology and results have been reported previously.[20], [30], [31], [32], [45] The kinase profiling for 58 representative kinases was carrried out commercially at Millipore Bioscience Division, Livingston, UK.

The target in another experiment is Cdk1-cyclin B1 (Homo sapiens, UniProt P06493). Briefly: In vitro kinase assay, Cdk1-cyclin B1 (in-house). In kind it is biochemical. The settings on record: three independent experiments; read-out: IC50 (mean±S.D.), Cdk1-cyclin B1. The procedure: as §1
A further experiment has as its target Cdk7-cyclin H (Homo sapiens, UniProt P50613). The experiment in a line: Kinase profiling (Millipore), Cdk7-cyclin H. In kind it is biochemical. The procedure: as §1
A further experiment deals with Cdk4-cyclin D1 (Homo sapiens, UniProt P11802). The experiment in a line: In vitro kinase assay, Cdk4-cyclin D1 (in-house). In kind it is biochemical. The procedure:
as §1

The test system of a further experiment is A549 (NSCLC; p53+, pRb+). The experiment in a line: Cell proliferation (MTT) assay, A549. In kind it is cell-based. The note with it: Homo sapiens, 48 h, read-out: IC50 cell growth inhibition, A549. The protocol: All 10 human cancer cell lines were maintained at 37 °C in 5% CO2 in RPMI-1640 medium, supplemented with 10% foetal calf serum and 100 μg/ml normocin. The 10 cancer cell lines used for screening were all obtained from ATCC (Manassas, VA, USA); they were the NSCLC (a form of cancer that is resistant to chemotherapy) lines: NCI-H460 (pRb^+, p53^+), A549 (pRb^+, p53^+), Calu-1 (pRb^+, p53-null), NCI-H1299 (pRb^+, p53-null), NCI-H358 (pRb-null, p53-null); the colon cancer line LS174T (pRb^+, p53^+); the prostate cancer line PC-3 (pRb^+, p53-null); the pancreatic cancer line MiaPaca (pRb^+, p53-mutant). The genotypes within brackets indicate the status of the tumour suppressor proteins pRb and p53. The mouse embryonic normal hepatic cell line (BNL CL2) and its SV40 large T-antigen-transformed counterpart cell line (BNL SV A.8) were also purchased from ATCC. The large T-antigen inactivates the tumour suppressor proteins p53 and pRb. The detailed procedure of cell proliferation (MTT) assay and IC50 determination was described previously.[32]

Chain of Cdk4-cyclin D1 (P11802 whole entry): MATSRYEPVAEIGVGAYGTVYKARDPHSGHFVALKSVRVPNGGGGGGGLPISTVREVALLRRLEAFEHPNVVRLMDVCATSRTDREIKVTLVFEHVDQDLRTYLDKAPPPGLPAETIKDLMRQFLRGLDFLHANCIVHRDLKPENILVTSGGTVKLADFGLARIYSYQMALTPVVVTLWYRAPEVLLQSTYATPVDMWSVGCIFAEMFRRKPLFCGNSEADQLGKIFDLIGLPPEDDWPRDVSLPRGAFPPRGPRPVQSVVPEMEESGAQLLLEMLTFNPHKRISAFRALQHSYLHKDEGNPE
Chain of Cdk4-cyclin D1 (P24385 whole entry partner): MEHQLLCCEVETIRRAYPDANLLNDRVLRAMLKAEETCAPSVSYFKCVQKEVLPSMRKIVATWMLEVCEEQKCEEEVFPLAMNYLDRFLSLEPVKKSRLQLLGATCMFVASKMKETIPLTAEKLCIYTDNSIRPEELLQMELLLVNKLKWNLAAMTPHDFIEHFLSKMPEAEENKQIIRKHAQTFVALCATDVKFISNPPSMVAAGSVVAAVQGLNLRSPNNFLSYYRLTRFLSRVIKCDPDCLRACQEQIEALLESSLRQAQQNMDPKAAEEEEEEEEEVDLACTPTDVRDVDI
Chain of Cdk7-cyclin H (P50613 whole entry): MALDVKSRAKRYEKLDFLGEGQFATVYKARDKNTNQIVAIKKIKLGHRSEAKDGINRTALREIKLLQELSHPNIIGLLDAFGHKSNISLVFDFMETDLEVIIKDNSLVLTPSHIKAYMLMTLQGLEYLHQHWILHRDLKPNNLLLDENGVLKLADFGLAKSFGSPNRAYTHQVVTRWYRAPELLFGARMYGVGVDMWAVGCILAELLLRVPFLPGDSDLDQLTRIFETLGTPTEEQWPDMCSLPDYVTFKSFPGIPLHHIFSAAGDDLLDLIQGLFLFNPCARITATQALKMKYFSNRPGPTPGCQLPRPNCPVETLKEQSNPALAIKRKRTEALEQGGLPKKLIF
Chain of Cdk7-cyclin H (P51946 whole entry partner): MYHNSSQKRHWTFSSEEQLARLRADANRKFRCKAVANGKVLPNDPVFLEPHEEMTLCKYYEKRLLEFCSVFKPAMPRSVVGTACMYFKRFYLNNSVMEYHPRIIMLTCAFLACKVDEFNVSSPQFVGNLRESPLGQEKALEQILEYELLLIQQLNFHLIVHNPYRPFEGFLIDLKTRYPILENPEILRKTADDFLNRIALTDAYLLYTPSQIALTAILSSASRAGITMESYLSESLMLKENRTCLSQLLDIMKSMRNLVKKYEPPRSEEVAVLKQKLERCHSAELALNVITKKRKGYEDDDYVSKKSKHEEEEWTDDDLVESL
Chain of Cdk7-cyclin H (P51948 whole entry partner): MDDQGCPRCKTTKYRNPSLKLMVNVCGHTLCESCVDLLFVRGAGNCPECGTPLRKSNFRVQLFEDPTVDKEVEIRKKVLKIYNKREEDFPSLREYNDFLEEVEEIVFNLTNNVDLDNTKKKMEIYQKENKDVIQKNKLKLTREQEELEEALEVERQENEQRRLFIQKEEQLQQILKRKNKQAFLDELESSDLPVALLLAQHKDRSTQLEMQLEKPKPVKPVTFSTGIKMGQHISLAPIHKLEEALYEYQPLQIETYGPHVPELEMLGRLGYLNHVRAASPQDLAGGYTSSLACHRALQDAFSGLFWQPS
Chain of Cdk1-cyclin B1 (P06493 whole entry): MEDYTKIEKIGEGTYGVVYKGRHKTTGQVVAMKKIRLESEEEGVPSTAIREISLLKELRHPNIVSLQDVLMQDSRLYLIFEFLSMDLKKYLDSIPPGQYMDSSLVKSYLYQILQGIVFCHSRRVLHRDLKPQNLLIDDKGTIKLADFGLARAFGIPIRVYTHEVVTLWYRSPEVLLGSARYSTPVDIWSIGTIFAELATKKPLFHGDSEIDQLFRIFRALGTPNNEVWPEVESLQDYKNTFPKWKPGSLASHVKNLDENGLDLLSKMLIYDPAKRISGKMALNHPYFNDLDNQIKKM
Chain of Cdk1-cyclin B1 (P14635 whole entry partner): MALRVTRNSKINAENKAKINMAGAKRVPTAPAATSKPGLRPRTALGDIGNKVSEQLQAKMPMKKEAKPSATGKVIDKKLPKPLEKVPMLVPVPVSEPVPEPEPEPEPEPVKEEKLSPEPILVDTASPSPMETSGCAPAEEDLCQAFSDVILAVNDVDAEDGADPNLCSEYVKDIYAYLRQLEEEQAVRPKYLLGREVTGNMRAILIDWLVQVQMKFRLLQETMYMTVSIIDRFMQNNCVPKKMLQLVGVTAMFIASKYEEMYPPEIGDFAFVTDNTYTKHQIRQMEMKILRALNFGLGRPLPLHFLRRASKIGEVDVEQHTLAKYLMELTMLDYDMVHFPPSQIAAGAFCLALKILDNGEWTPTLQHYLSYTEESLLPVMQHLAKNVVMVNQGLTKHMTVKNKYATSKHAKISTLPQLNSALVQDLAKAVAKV

As a reminder, the IC50 is the concentration that gives 50% inhibition. Turning to `O=C(c1ccccc1-c1ccccc1)N1CCc2c([nH]c3ccccc23)C1` [BPT, 2-(biphenyl-2-carbonyl)-2,3,4,9-tetrahydro-1H-pyrido[3,4-b]indole], in experiment [1], the “inhibition of other kinases (panel of 58)” value is “no inhibition against other kinases; also recorded: does not inhibit any kinase to any appreciable degree”. Besides, the concentration for half-maximal inhibition (IC50) at Cdk1-cyclin B1 is over 500 µM; on Cdk7-cyclin H, over 10 µM; at Cdk4-cyclin D1 (three independent experiments, read-out: IC50 (mean±S.D.), Cdk4-cyclin D1), 10 ± 1.2 µM; in the experiment with A549 (NSCLC; p53+, pRb+), 920 nM. For the same molecule, the “selectivity for Cdk4-cyclin D1 with respect to Cdk2-cyclin A” value at Cdk4-cyclin D1 is reported as 83 fold.
